The record followed here is patent US9957251B2 (Takeda Pharmaceutical Company Limited, priority 2014, dated 2018).

One assay concerns the target T1, CDK19 (CDC2L6/CycC) (Homo sapiens, UniProt Q9BWU1).
T1 construct: purchased Carna Biosciences
As to the kind of experiment: CDK19 inhibitory activity (TR-FRET, Kinase Tracer-236 displacement). Type of assay: binding. Conditions: 1 μM of the test compound; read-out: Percent inhibition of CDK19 activity (%). On the procedure: (§1) The compound of the present invention was evaluated for its CDK8 inhibitory activity and CDK19 inhibitory activity by the following method. […] The primary diluted solution was dispensed in the amount of 2 μL/well to a 384-well plate, and then, a mixed solution of Eu^3+ Cryptate conjugated mouse monoclonal antibody anti-glutathione S-transferase (Cisbio) diluted 267-fold with an assay buffer and 60 nM Kinase Tracer-236 (Life technologies) was added thereto at 2 μL/well. After the addition, each kinase solution (84 ng/mL CDK8/CycC (Carna Biosciences) diluted with an assay buffer used for CDK8 inhibitory activity measurement, and 87 ng/mL CDC2L6/CycC (Carna Biosciences) diluted with an assay buffer used for CDK19 inhibitory activity measurement) was further added thereto at 2 μL/well. After the addition, the plate was left standing at room temperature for 1 hour, and then, the fluorescence intensity (excitation wavelength 320 nm, fluorescence wavelength 615 nm, 665 nm, delay time 50 μsec) was measured using an EnVision plate reader (PerkinElmer).
A general note: In TR-FRET formats the signal depends on donor and acceptor labels being close together.

Assay [1] has as its system human multiple myeloma RPMI8226 cells. Put plainly: Inhibitory activity against human multiple myeloma RPMI8226 cell growth (CellTiter-Glo). Format: cell-based. Conditions: Homo sapiens, RPMI-8226, 192 h, 1 μM of the test compound, cultured for 8 days; read-out: Percent inhibition of RPMI8226 cell growth (%). On the procedure:
The compound of the present invention was evaluated for its inhibitory activity against human multiple myeloma RPMI8226 cell growth by the following method.
A suspension of human multiple myeloma RPMI8226 cells (purchased from the Health Protection Agency) was inoculated at 40 μL (300 cells/well) to a 384-well plate and cultured at 37° C. for 1 day in a 5% CO2 incubator. After the culture, each test compound solution was added thereto at a test concentration of 1 μM using TECAN D300, and the cells were further cultured for 8 days. After the culture, CellTiter-Glo™ Luminescent Cell Viability Assay reagent (Promega) was added at 40 μL/well to a 384-well plate, and the amount of luminescence was measured using a luminometer. Inhibitory activity against human multiple myeloma RPMI8226 cell growth (percent inhibition (%)) of the test compound was calculated according to the following formula, which is based on the hypothesis that the amount of residual ATP reflects the number of cells. In this formula, 100% control represents the amount of luminescence from a well with only 0.1% DMSO added. Percent inhibition (%)=(1−(amount of luminescence of the test compound)÷(100% control))×100

A further assay has as its target T2, CDK8/CycC (Homo sapiens, UniProt P49336).
T2 construct: purchased Carna Biosciences
Put plainly: CDK8 inhibitory activity (TR-FRET, Kinase Tracer-236 displacement). Conditions: 1 μM of the test compound; read-out: Percent inhibition of CDK8 activity (%). Format: binding. The protocol:
as §1

T1 sequence (Q9BWU1 whole entry): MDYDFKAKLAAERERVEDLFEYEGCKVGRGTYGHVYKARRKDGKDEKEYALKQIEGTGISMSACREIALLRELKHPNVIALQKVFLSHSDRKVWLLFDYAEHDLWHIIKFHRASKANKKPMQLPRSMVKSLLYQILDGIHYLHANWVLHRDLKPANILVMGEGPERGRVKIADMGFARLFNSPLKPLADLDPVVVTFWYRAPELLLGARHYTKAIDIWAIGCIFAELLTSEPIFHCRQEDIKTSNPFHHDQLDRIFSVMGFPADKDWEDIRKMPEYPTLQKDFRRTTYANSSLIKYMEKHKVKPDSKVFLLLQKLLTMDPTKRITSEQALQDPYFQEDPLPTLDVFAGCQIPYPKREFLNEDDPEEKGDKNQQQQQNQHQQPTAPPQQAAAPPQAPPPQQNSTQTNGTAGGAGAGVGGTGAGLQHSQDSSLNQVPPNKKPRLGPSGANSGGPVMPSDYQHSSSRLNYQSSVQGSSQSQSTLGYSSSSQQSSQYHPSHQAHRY
T1 sequence (P24863 whole entry partner): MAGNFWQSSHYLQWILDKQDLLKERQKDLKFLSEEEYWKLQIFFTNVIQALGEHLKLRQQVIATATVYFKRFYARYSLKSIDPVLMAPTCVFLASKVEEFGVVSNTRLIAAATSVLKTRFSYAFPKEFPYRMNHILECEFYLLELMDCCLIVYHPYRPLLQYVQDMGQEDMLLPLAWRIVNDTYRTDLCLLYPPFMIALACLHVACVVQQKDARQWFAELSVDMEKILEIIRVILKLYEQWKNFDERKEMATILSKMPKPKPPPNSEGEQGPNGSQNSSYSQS
T2 sequence (P49336 whole entry): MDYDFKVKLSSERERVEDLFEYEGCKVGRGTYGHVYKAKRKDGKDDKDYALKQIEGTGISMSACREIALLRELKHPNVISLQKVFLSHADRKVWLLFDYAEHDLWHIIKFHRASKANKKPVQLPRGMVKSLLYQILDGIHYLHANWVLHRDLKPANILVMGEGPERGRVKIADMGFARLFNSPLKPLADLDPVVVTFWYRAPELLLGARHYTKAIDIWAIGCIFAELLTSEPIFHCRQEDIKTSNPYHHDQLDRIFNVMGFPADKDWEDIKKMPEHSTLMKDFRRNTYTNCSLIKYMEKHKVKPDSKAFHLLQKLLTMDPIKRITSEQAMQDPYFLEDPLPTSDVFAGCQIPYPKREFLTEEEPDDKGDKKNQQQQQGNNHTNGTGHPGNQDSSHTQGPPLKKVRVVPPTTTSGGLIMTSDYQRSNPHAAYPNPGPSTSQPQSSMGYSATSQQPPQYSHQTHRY
T2 sequence (P24863 whole entry partner): as the sequence (P24863 whole entry partner) above

What is called inhibition is the drop in the measured response relative to a control, in per cent. Regarding `Cn1cc(-c2ccncc2/C=C/C(=O)Nc2ccc3cc[nH]c3c2)cn1` [Example 155, (2E)-N-(1H-indol-6-yl)-3-(4-(1-methyl-1H-pyrazol-4-yl)pyridin-3-yl)acrylamide], the inhibition at 1 µM on CDK19 (CDC2L6/CycC) is 93%; in assay [1] it was 54%; at CDK8/CycC, 98%.

Regarding `Cn1cc(-c2ccncc2/C=C/C(=O)Nc2ccc3ccncc3c2)cn1` [Example 156, (2E)-N-(isoquinolin-7-yl)-3-(4-(1-methyl-1H-pyrazol-4-yl)pyridin-3-yl)acrylamide], the inhibition at 1 µM on CDK19 (CDC2L6/CycC) is 94%; in assay [1], 55%; on CDK8/CycC it was 94%.

Regarding `Cn1cc(-c2ccncc2/C=C/C(=O)Nc2ccc(N3CCOCC3)c(Cl)c2)cn1` [Example 159, (2E)-N-(3-chloro-4-(morpholin-4-yl)phenyl)-3-(4-(1-methyl-1H-pyrazol-4-yl)pyridin-3-yl)acrylamide], the results for the inhibition at 1 µM (on CDK19 (CDC2L6/CycC); in assay [1]; on CDK8/CycC) were 100%, 60% and 102%, respectively.

Turning to `Cn1cc(-c2ccncc2/C=C/C(=O)Nc2ccc3c(c2)OCO3)cn1` [Example 163, (2E)-N-(1,3-benzodioxol-5-yl)-3-(4-(1-methyl-1H-pyrazole-4-yl)pyridin-3-yl)acrylamide], the values for the inhibition at 1 µM (on CDK19 (CDC2L6/CycC); in assay [1]; on CDK8/CycC) were 94%, 53% and 96%, respectively.

Consider `Cn1cc(-c2ccncc2/C=C/C(=O)Nc2ccc3c(c2)OCCO3)cn1` [Example 168, (2E)-N-(2,3-dihydro-1,4-benzodioxin-6-yl)-3-(4-(1-methyl-1H-pyrazol-4-yl)pyridin-3-yl)acrylamide], for which the values for the inhibition at 1 µM (on CDK19 (CDC2L6/CycC); in assay [1]; at CDK8/CycC) were 97%, 59% and 100%, respectively.

Take `Cn1cc(-c2ccncc2/C=C/C(=O)Nc2ccc3ncsc3c2)cn1` [Example 169, (2E)-N-(1,3-benzothiazol-6-yl)-3-(4-(1-methyl-1H-pyrazol-4-yl)pyridin-3-yl)acrylamide]: the inhibition at 1 µM stood at 90% on CDK19 (CDC2L6/CycC), 53% in assay [1] and 94% at CDK8/CycC.

For `Cn1cc(-c2ccncc2/C=C/C(=O)Nc2ccc3c(c2)CCO3)cn1` [Example 172, (2E)-N-(2,3-dihydro-1-benzofuran-5-yl)-3-(4-(1-methyl-1H-pyrazol-4-yl)pyridin-3-yl)acrylamide], the inhibition at 1 µM on CDK19 (CDC2L6/CycC) came out at 95%; in assay [1], 55%; on CDK8/CycC it was 96%.

Regarding `Cn1cc(-c2ccncc2/C=C/C(=O)Nc2ccc3c(ccn3C)c2)cn1` [Example 175, (2E)-N-(1-Methyl-1H-indol-5-yl)-3-(4-(1-methyl-1H-pyrazol-4-yl)pyridin-3-yl)acrylamide], the values for the inhibition at 1 µM (on CDK19 (CDC2L6/CycC); in assay [1]; on CDK8/CycC) were 99%, 55% and 98%, respectively.

In the case of `Cn1cc(-c2ccncc2/C=C/C(=O)Nc2ccc3c(c2)CCC3=O)cn1` [Example 176, (2E)-3-(4-(1-methyl-1H-pyrazol-4-yl)pyridin-3-yl)-N-(1-oxo-2,3-dihydro-1H-inden-5-yl)acrylamide], the inhibition at 1 µM at CDK19 (CDC2L6/CycC) is 87%; in assay [1], 54%; at CDK8/CycC it was 92%.

On to `Cn1cc(-c2ccncc2/C=C/C(=O)Nc2cccc(-c3cccnc3)c2)cn1` [Example 182, (2E)-3-(4-(1-methyl-1H-pyrazol-4-yl)pyridin-3-yl)-N-(3-(pyridin-3-yl)phenyl)acrylamide], for which the inhibition at 1 µM on CDK19 (CDC2L6/CycC) stood at 78%; in assay [1] it was 58%; on CDK8/CycC, 84%.

`Cn1cc(-c2ccncc2/C=C/C(=O)Nc2ccc3c(c2)CCCC3=O)cn1` [Example 191, (2E)-3-(4-(1-methyl-1H-pyrazol-4-yl)pyridin-3-yl)-N-(5-oxo-5,6,7,8-tetrahydronaphthalen-2-yl)acrylamide]: the inhibition at 1 µM on CDK19 (CDC2L6/CycC) was 92%; in assay [1], 56%; at CDK8/CycC it was 96%.

For the compound `O=C(/C=C/c1cnccc1-c1cncs1)Nc1ccc(CN2CCOCC2)cc1` [Example 195, (2E)-N-(4-(morpholin-4-ylmethyl)phenyl)-3-(4-(1,3-thiazol-5-yl)pyridin-3-yl)acrylamide], the inhibition at 1 µM turned out to be 97% on CDK19 (CDC2L6/CycC), 52% in assay [1] and 94% on CDK8/CycC.

Regarding `O=C(/C=C/c1cnccc1-c1ccns1)Nc1ccc(CN2CCOCC2)cc1` [Example 196, (2E)-N-(4-(morpholin-4-ylmethyl)phenyl)-3-(4-(1,2-thiazol-5-yl)pyridin-3-yl)acrylamide], the inhibition at 1 µM at CDK19 (CDC2L6/CycC) is 98%; in assay [1], 54%; on CDK8/CycC, 101%.

Take `CN1CCc2ccc(NC(=O)/C=C/c3cnccc3-c3cnn(C)c3)cc2C1` [Example 212, (2E)-3(4-(1-methyl-1H-pyrazol-4-yl)pyridin-3-yl)-N-(2-methyl-1,2,3,4-tetrahydroisoquinolin-7-yl)acrylamide]: the inhibition at 1 µM at CDK19 (CDC2L6/CycC) was 98%; in assay [1] it was 52%; at CDK8/CycC, 100%.

With `CC(=O)n1cc(-c2ccncc2/C=C/C(=O)Nc2ccc(CN3CCOCC3)cc2)cn1` [Example 218, (2E)-3-(4-(1-Acetyl-1H-pyrazol-4-yl)pyridin-3-yl)-N-(4-(morpholin-4-ylmethyl)phenyl)acrylamide], the inhibition at 1 µM at CDK19 (CDC2L6/CycC) stood at 101%; in assay [1], 65%; at CDK8/CycC, 96%.

On to `COc1ccc(-c2ccncc2/C=C/C(=O)Nc2ccc(CN3CCOCC3)cc2)s1` [Example 220, (2E)-3-(4-(5-methoxy-2-thienyl)pyridin-3-yl)-N-(4-(morpholin-4-ylmethyl)phenyl)acrylamide], for which the inhibition at 1 µM on CDK19 (CDC2L6/CycC) was 96%; in assay [1], 58%; at CDK8/CycC, 93%.

For `COc1ncc(-c2ccncc2/C=C/C(=O)Nc2ccc(CN3CCOCC3)cc2)s1` [Example 221, (2E)-3-(4-(2-Methoxy-1,3-thiazol-5-yl)pyridin-3-yl)-N-(4-(morpholin-4-ylmethyl)phenyl)acrylamide], the inhibition at 1 µM on CDK19 (CDC2L6/CycC) is 98%; in assay [1], 63%; on CDK8/CycC, 99%.

Take `O=C(/C=C/c1cnccc1-c1ccc2nccn2c1)Nc1ccc(CN2CCOCC2)cc1` [Example 222, (2E)-3-(4-(imidazo[1,2-a]pyridin-6-yl)pyridin-3-yl)-N-(4-(morpholin-4-ylmethyl)phenyl)acrylamide]: the inhibition at 1 µM on CDK19 (CDC2L6/CycC) was 100%; in assay [1], 52%; at CDK8/CycC, 101%.

For the compound `CN(C)CCc1ccc(NC(=O)/C=C/c2cnccc2-c2cnn(C)c2)cc1` [Example 226, (2E)-N-(4-(2-(dimethylamino)ethyl)phenyl)-3-(4-(1-methyl-1H-pyrazol-4-yl)pyridin-3-yl)acrylamide], the figures for the inhibition at 1 µM (on CDK19 (CDC2L6/CycC); in assay [1]; at CDK8/CycC) were 98%, 66% and 98%, respectively.

Turning to `Cn1cnc2ccc(-c3ccncc3/C=C/C(=O)Nc3ccc(CN4CCOCC4)cc3)cc21` [Example 234, (2E)-3-(4-(1-methyl-1H-benzimidazol-6-yl)pyridin-3-yl)-N-(4-(morpholin-4-ylmethyl)phenyl)acrylamide], the inhibition at 1 µM turned out to be 102% at CDK19 (CDC2L6/CycC), 65% in assay [1] and 102% at CDK8/CycC.

With `Cn1cc(-c2ccncc2/C=C/C(=O)Nc2cc(F)c(CN3CCOCC3)cc2F)cn1` [Example 237, (2E)-N-(2,5-difluoro-4-(morpholin-4-ylmethyl)phenyl)-3-(4-(1-methyl-1H-pyrazol-4-yl)pyridin-3-yl)acrylamide], the inhibition at 1 µM was determined as 91% on CDK19 (CDC2L6/CycC), 66% in assay [1] and 94% at CDK8/CycC.

Turning to `Cn1cc(-c2c(F)cncc2/C=C/C(=O)Nc2ccc(CN3CCOCC3)cc2)cn1` [Example 238, (2E)-3-(5-fluoro-4-(1-methyl-1H-pyrazol-4-yl)pyridin-3-yl)-N-(4-(morpholin-4-ylmethyl)phenyl)acrylamide], the inhibition at 1 µM on CDK19 (CDC2L6/CycC) is 100%; in assay [1], 67%; on CDK8/CycC it was 100%.

`COCc1ccc(NC(=O)/C=C/c2cnccc2-c2cnn(C)c2)cc1` [Example 239, (2E)-N-(4-(methoxymethyl)phenyl)-3-(4-(1-methyl-1H-pyrazol-4-yl)pyridin-3-yl)acrylamide]: the inhibition at 1 µM was 100% on CDK19 (CDC2L6/CycC), 65% in assay [1] and 100% at CDK8/CycC.
